Measurements: patent publication US20240182526A1, “COMPOSITIONS AND METHODS FOR MODULTING INFLAMMATORY AND DEGENERATIVE DISORDER” (University of Southern California, priority 2021, published 2024)
“Also recorded” adds a separate entry of the source.

Legend:
Assay type in all cases: cell-based
[1] = test system: ADAMTS4, ADAMTS5 and MMP13 transcription; assay: qPCR of matrix-degrading genes in OSM-stimulated pig articular chondrocytes; details: 48 hours
Protocol: Quantitative Real-Time PCR. Power SYBR Green (Applied Biosystems) RT-PCR amplification and detection was performed using an Applied Biosystems Step One Plus Real-Time PCR machine. The comparative Ct method for relative quantification (2-ΔΔCt) was used to quantitate gene expression. TBP (TATA-box binding protein) was used for gene normalization and expressed relative to a calibrator (sample in each set with lowest expression). Q-PCR for was conducted using the following primers: human: TBP forward, 5′ GATGGACGTTCGGTTTAGG 3′ (SEQ ID NO:28); TBP reverse, 5′ AGCAGCACAGTACGAGCAA 3′ (SEQ ID NO:29), MMP13 forward, 5′ […] 3′(SEQ ID NO:30); MMP13 reverse, 5′ GAACCCCGCATCTTGGCTT 3′ (SEQ ID NO:31), ADAMTS5 forward 5′ […] 3′ (SEQ ID NO:32); ADAMTS5 reverse, 5′ […] 3′ (SEQ ID NO:33), ADAMTS4 forward 5′ […] 3′ (SEQ ID NO:34); ADAMTS4 reverse, 5′ […] 3′ (SEQ ID NO:35), Collagen II forward, 5′ […] 3′ (SEQ ID NO:36); Collagen II reverse 5′ […] 3′ (SEQ ID NO:37); Aggrecan forward, 5′ AGGCAGCGTGATCCTTACC 3′ (SEQ ID NO:38); Aggrecan reverse, 5′ […] 3′ (SEQ ID NO:39). Cells were treated with 10 ng/mL OSM and/or with 5 μM SRC (SU6656) inhibitor, 10 ng/mL OSM and/or 50 ng/mL WT/F814 plasmids; 10 ng/mL OSM and/or 100 or 300 ug/mL of peptide QQpYF (Evseenko lab, Thermo Scientific); 10 uM R805 and/or 10 ng/mL OSM.

[2] = test system: gp130 and pSRC; assay: Co-immunoprecipitation of complex formation between gp130 and pSRC in pig articular chondrocytes; details: pig articular chondrocytes with or without OSM, 4 and 24 hours
Protocol: IP Western, SDS-PAGE and Western blot analysis. For transfections of gp130 wild type (WT) (InVivoGen) and gp130 mutant plasmids (Thermo Scientific), cells were plated 24 h prior to transfection to produce monolayers that were 60% confluent and these were transfected by using Turbo DNAfectin 3000 (cat #G3000, Lambda Biotech) according to the manufacturer's protocol. 72h after transfection, cells were maintained in DMEM (10% FBS, 1% PSA) and were either left untreated or were stimulated with IL-6 (10 ng/mL) and/or OSM (10 ng/mL) for 24 h before cell harvest and protein extraction. For immunoprecipitation assays, cell lysates were incubated with Protein G Agarose (cat #20398, Pierce) and anti-Flag antibody (cat #2368, Cell Signaling) at 4° C. overnight. The immune complexes were sedimented, washed and separated by SDS-PAGE (see below) and further analyzed by Western blot using p-SRC (pY416-SRC) (cat #1246F, Novus Biologicals) or NEMO (cat #18474-1-AP, Proteintech) antibodies and normalized to gp130 (cat #bs-1459R, Bioss) or total SRC (cat #2123, Cell Signaling). For R805 treatment, the immune complexes were sedimented, washed and separated by SDS-PAGE and further analyzed by Western blot using OSMR (cat #ab85575, Abcam), LIFR (Santa cat #515337, Cruz Biotechnology) or p-SRC (pY416-SRC) (Novus Biologicals, cat #1246F). Histone H3 (cat #9715, Cell Signaling), gp130 (cat #bs-1459R, Bioss), total SRC (cat #2123, Cell Signaling) or Flag antibody (cat #14739, Cell Signaling) were used as loading controls.
The studies delineate that gp130 Y814 regulates SRC downstream signaling; since SRC is known to associate with gp130, it was hypothesized that gp130 and SRC are capable of physically interacting on Y814 and hindering this interaction will prevent SRC from signaling. In order to impede this interaction, experiments were performed using an innovative peptide library screen with short and overlapping peptides mimicking the motif of gp130 around Y814 that were individually tested for pSRC downregulation; these peptides ranged from 4-15 amino acids. The peptides contained a protein sequence stretch of consecutive amino acids surrounding gp130 Y814 residue. To test their efficacy, pig articular chondrocytes were stimulated with or without OSM in presence or absence of the peptides followed by co-immunoprecipitation to determine interaction and western blot detecting pSRC activity. […] Due to sequence specificity, the peptide is capable of discriminating among other gp130 regions serving as a competitive inhibitor.

[3] = test system: YAP1; assay: Western blot of YAP1 in LIF-treated pig articular chondrocytes; details: 4 and 24 hours
Protocol: (§1) For standard western blot, treated and non-treated cells were lysed in RIPA Lysis and Extraction Buffer (Pierce, Rockford, IL) containing protease inhibitors (Pierce) followed by sonication with a 15-second pulse at a power output of 2 using the VirSonic 100 (SP Industries Company, Warminster, PA). Protein concentrations were determined by BCA protein assay (Pierce). Proteins were resolved with SDS-PAGE utilizing 4-15% Mini-PROTEAN TGX Precast Gels and transferred to Trans-Blot Turbo Transfer Packs with a 0.2-μm pore-size nitrocellulose membrane. The SDS-PAGE running buffer, 4-15% Mini-PROTEAN TGX Precast Gels, Trans-Blot Turbo Transfer Packs with a 0.2-μm pore-size nitrocellulose membrane was purchased from Biorad (Hercules, CA). Nitrocellulose membranes were blocked in 5% nonfat milk in 0.05% (v/v) Tween 20 (PBST) (Corning, Manassas, VA). […] Quantification of blots was performed using ImageJ 1.44 followed by Prism9 for analysis.
(§2) Experiments were performed to determine whether R805 is inclined to shift the signaling outputs downstream of gp130 promoting differential regulation similar to genetic ablation of Y814. As a readout, protein levels of phosphorylated SRC, MAPK (ERK 1/2) and NF-κB were measured in response to OSM while STAT3 and YAP1 levels were evaluated in response to LIF.

[4] = test system: pSTAT3; assay: Western blot of pSTAT3 in LIF-treated pig articular chondrocytes; details: 4 and 24 hours
Protocol: as §1, §2

Cc1ccc(-c2csc(NC(=O)c3ccccn3)n2)cc1 [Peptide R805]
OSM-induced transcription of matrix-degrading genes (ADAMTS4, ADAMTS5, MMP13), qPCR [1]: able to decrease the MMP13 and ADAMTS4/5 gene expression
complex formation between gp130 and pSRC (gp130-SRC interaction) [2]: able to prevent endogenous interaction of SRC with gp130; also recorded: prevents SRC binding to gp130
YAP1 downstream of LIF [3]: minimal inhibitory effect
pSTAT3 downstream of LIF [4]: minimal inhibitory effect; also recorded: does not affect pro-regenerative signaling downstream of gp130
